Patent US10316056B2, “Chemical compounds and use thereof for improving muscular quality” (BIOPHYTIS, priority 2014, dated 2019)
Like-named read-outs stand apart in the source and are kept apart here.

What was measured:
[1] = test system: myostatin gene expression in C2C12 cells; assay: Inhibition of myostatin expression in C2C12 cells (qPCR); type: cell-based; details: Mus musculus, percentage myostatin gene expression in cells in contact with the compounds related to control cells, C2C12, 6 h
Method in brief: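 C2C12 myoblasts differentiated to myotubes for 5 days in 2% serum, then treated 6 h with compounds in serum-free, low-glucose (1 g/l) DMEM; IGF-1 100 ng/ml as reference. Myostatin mRNA quantified by RT-qPCR, expressed relative to untreated control as R=2^-ΔΔCt.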

in vivo = details: male, Wistar, rat, po, 10 mg/kg
Protocol: (§5) The pharmacokinetics of the compounds were evaluated orally using male Wistar rats (Charles River). […] The novel compounds according to the invention were administered at a dose of 10 mg/kg of body weight in the form of a mixture of 4 to 6 products. After administration, the blood was sampled from the tail at t=0.25 h, 0.5 h, 1 h, 3 h, 6 h and 8 h. The blood samples were centrifuged and the plasmas removed.

[2] = rat, in vivo, po
Protocol: as §5

[3] = test system: S6 kinase (S6K1) phosphorylation in C2C12 cells; assay: Phosphorylation of the S6 kinase in C2C12 cells (ELISA pS6K T389), protein synthesis; type: cell-based, mouse; details: C2C12, 2 h; for activity at 10 µM / activity: Mus musculus; for activity at 10 µM: read-out: Protein synthesis (percentage increase in S6K phosphorylation in muscle cells); for activity: read-out: S6K1 phosphorylation level
Protocol: After several experiments in which the C2C12 cells differentiated into myotubes were incubated in the presence of IGF-1 or 20E for 2 h 30 or 6 h, two screening tests were developed. Thus, the phosphorylation of the S6 protein kinase and the expression of the myostatin gene were studied in order to determine their modulation by a growth hormone or an ecdysone and to characterize these modulations from a statistical point of view.
The C2C12 myoblast cells (ATCC CRL-1772) are seeded into 6-well plates at a density of 170 000 cells per well and cultured in a DMEM medium containing glucose in a proportion of 4.5 g/l and supplemented with fetal calf serum (10%) and with antibiotics (penicillin and streptomycin). Forty-eight hours later, the myoblasts are induced to differentiate by partial serum depletion (2% instead of 10%) for 5 days. The cells are then placed in a medium which is glucose-depleted (DMEM containing 1 g/l of glucose) and serum-free in the presence of the test molecules or of the references (100 ng/ml IGF-1 or 10 μM 20E) for 2 h. At the end of the experiment, the cells are lysed in a commercial lysis buffer (Invitrogen FNN0011) supplemented with a commercial mixture of anti-proteases (Roche 05056489001). After centrifugation, the cytoplasmic fraction containing the soluble proteins is kept and the protein concentration is determined using a commercial kit (Biorad 500-0114), the principle of which is composed of assaying by the Lowry method. The assaying of the S6 kinase phosphorylation is carried out using a commercial ELISA (Enzyme Linked ImmunoSorbent Assay) kit (Cell signaling 7063). Briefly, 50 μg of protein lysate are deposited in the wells of a 96-well microplate and incubated overnight at 4° C. with the solution of antigen specific for the pS6 kinase threonine 389 antibody. The binding of the antigen to the bottom of the wells is done electrostatically. The solution of antibody to be assayed (pS6K T389) is then incubated at 37° C. in the wells for 2 hours. The antibodies bind specifically to the antigen. The wells are then washed with washing buffer in order to remove the antigen-specific primary antibodies to be assayed which are in excess. The third step consists in binding the detection antibody. The solution of detection antibodies is incubated at 37° C. in the wells for 1 hour. The wells are then washed in order to remove the excess detection antibodies. It should be noted that the detection antibodies are coupled to an enzyme which, in the presence of its substrate, converts it into a reaction product that can be detected and measured by virtue of the appearance of a coloration. […] The appearance of a blue coloration in the substrate indicates the presence of the antibody to be assayed. In order to prevent any saturation phenomenon, a stop solution (generally containing […]) is added and brings about a change in coloration, which goes from blue to yellow. The strength thereof is proportional to the amount of enzyme present and thus to the concentration of antibody sought. The strength of the signal is measured using spectrophotometry at a wavelength of 450 nm.

Myf5 gene transcripts = assay: Mice subjected to a high-fat diet: Myf5 transcripts; type: in vivo, C57BL/6J mice; details: 5 mg/kg orally; high-fat diet for 6 weeks
Protocol: (§1) The 20E as comparative compound and the compounds according to the invention (Nos. 51 and 93) were administered orally, at a dose of 5 mg/kg of body weight, to 12-week-old C57BL/6J mice subjected to a high-fat diet for 6 weeks. The effect of the compounds on the weight and the amount of proteins of the Soleus muscle and also the transcripts of genes involved in myogenesis were evaluated.
(§2) Myogenesis, which is the process for forming muscle tissues, is controlled by several myogenic transcription factors which act as end effectors of the signaling cascade and produce transcripts involved in the various stages of development. The roles of the transcription factors have been described in various journals (Sabourin and Rudnicki 2000 and Le Grand and Rudnicki 2007). The Pax7 protein (Paired-box protein 7) maintains a population of satellite cells in quiescence and, with Myf5 (Myogenic factor 5), plays a role in the expansion of activated myoblasts. The MyoD protein (Myoblast Determination protein) appears to determine the differentiation potential of activated myoblasts, and cooperates with myogenin and the MEF2 (Myocyte Enhancer Factor 2) protein to control and bring about differentiation. Finally, MRF4 (Muscle-specific Regulatory Factor 4) is required for hypertrophy, even though it probably plays other roles. […]
(§3) The relative differences in gene expression between treatments are expressed as increase or decrease in the number of cycle times [Ct] compared with the control group, the [Ct] value of each gene having been standardized with the beta-actin gene.
(§4) The in vivo study is carried out by evaluating the effect of 20E as comparative compound and of the molecules according to the invention (Nos. 51 and 93) administered orally, at a dose of 5 mg/kg of body weight, to C57BL/6 mice subjected to a high-fat diet for 6 weeks. The effect of the molecules on the weight and the amount of proteins of the Soleus muscle and also the transcripts of genes involved in myogenesis were evaluated.

MyoD transcripts = assay: Mice subjected to a high-fat diet: MyoD transcripts of the Soleus muscle; type: in vivo, C57BL/6J mice; details: 5 mg/kg orally; high-fat diet for 6 weeks; FIG. 5A
Protocol: as §1, §2, §3, §4

myogenin transcripts = assay: Mice subjected to a high-fat diet: myogenin transcripts of the Soleus muscle; type: in vivo, C57BL/6J mice; details: 5 mg/kg orally; high-fat diet for 6 weeks; FIG. 5B
Protocol: as §1, §2, §3, §4

myostatin transcript = assay: Mice subjected to a high-fat diet: myostatin transcript of the Soleus muscle; type: in vivo, C57BL/6J mice; details: 5 mg/kg orally; high-fat diet for 6 weeks; FIG. 4
Protocol: as §1
In order to carry out the gene expression analysis, the muscle tissues were homogenized in a Trizol solution (500 μl), and the RNAs were extracted and purified using the phenol/chloroform method. An amount of […] of RNA was used as template for the synthesis of the first cDNA strand using oligo (dT)s as primers and the AMV reverse transcriptase enzyme as described by the supplier (Applied Biosystems 4368814). The q-PCRs were then carried out using a 7900HT machine equipped with a rapid system for real-time detection by PCR (Applied Biosystems) and the standard qPCR program (1 cycle of 95° C. for 15 min, 40 cycles of 95° C. for 15 s and 60° C. for 1 min, a 60-95° C. melt curve for the Sybergreen probes). The experiments are carried out in a Sybergreen SYBR master mix (Applied Biosystems) containing the 100 ng cDNA samples and a set of primers which bind to the two different exons and at a final concentration of 200 nM.
as §3, §4

[4] = test system: Soleus muscle of C57BL/6 mice subjected to a high-fat diet; assay: Mice subjected to a high-fat diet: weight and amount of proteins of the Soleus muscle; type: in vivo, C57BL/6J mice; details: 5 mg/kg orally, high-fat diet for 6 weeks, compared with the control group
Protocol: as §1
The amount of proteins is determined by first lysing the muscles sampled in a 0.1N NaOH solution with the FastPrep technique. The proteins are quantified by means of a colorimetric assay derived from the Lowry method.
as §4

[5] = test compounds and 20E reference (10 μM)

C/C(=N/OCCN1CCOCC1)[C@H]1CC[C@@]2(O)C3=CC(=O)[C@@H]4C[C@@H](O)[C@@H](O)C[C@]4(C)C3CC[C@]12C (stereo partly drawn) [Compound 31, (2S,3R,5R,10R,13R,14S,17S)-2,3,14-trihydroxy-10,13-dimethyl-17-(C-methyl-N-(2-morpholinoethoxy)carbonimidoyl)-2,3,4,5,9,11,12,15,16,17-decahydro-1H-cyclopenta[a]phenanthren-6-one]
mrna remaining at 10 µM [1]: < 70% | AUC (in vivo): 281 ng·h/mL | Cmax (in vivo): 105 ng/mL | Tmax (in vivo): 15 min | Cexp (coefficient of exposure) ([2]; male, Wistar): 3.7 | plasma exposure compared with 20E [2]: better plasma exposure

CC(NCC1CCCO1)[C@H]1CC[C@@]2(O)C3=CC(=O)[C@@H]4C[C@@H](O)[C@@H](O)C[C@]4(C)C3CC[C@]12C (stereo partly drawn) [Compound 46, (2S,3R,5R,10R,13R,14S,17S)-2,3,14-trihydroxy-10,13-dimethyl-17-[1-(tetrahydrofuran-2-ylmethylamino)ethyl]-2,3,4,5,9,11,12,15,16,17-decahydro-1H-cyclopenta[a]phenanthren-6-one]
mrna remaining at 10 µM [1]: < 70% | AUC (in vivo): 202 ng·h/mL | Cmax (in vivo): 40 ng/mL | Tmax (in vivo): 15 min | Cexp (coefficient of exposure) ([2]; male, Wistar): 2.6 | plasma exposure compared with 20E [2]: better plasma exposure | activity at 10 µM [3]: 110 to 129% | activity [3, 5]: ~120%

CC(C)(O)CC[C@@H](O)[C@](C)(O)[C@H]1CC[C@@]2(O)C3=CC(=O)[C@@H]4C[C@@H](O)[C@@H](O)C[C@]4(C)[C@H]3CC[C@]12C [Compound 20E, 20-hydroxyecdysone, reference compound]
transcripts of the Myf5 gene (Myf5 gene transcripts): increase | transcripts of the MyoD gene (MyoD transcripts): increase | transcript of the myogenin gene (myogenin transcripts): increase | myostatin expression in the Soleus muscle (myostatin transcript): comparably inhibit | weight of the Soleus muscle ([4]; FIG. 3A): increases | amount of proteins of the Soleus muscle ([4]; FIG. 3B): increases | Cexp (coefficient of exposure) [2]: 1.0 | AUC ([2]; 50 mg/kg): 382 ng·h/mL | Cmax ([2]; 50 mg/kg): 68 ng/mL | Tmax ([2]; 50 mg/kg): 30 min | S6K1 phosphorylation level [3, 5]: 120%

C[C@]12C[C@H](O)[C@H](O)C[C@H]1C(=O)C=C1C2CC[C@]2(C)[C@@H](C(=O)CSCCO)CC[C@@]12O (stereo partly drawn) [Compound 94, (2S,3R,5R,10R,13R,14S,17S)-2,3,14-trihydroxy-17-[2-(2-hydroxyethylsulfanyl)acetyl]-10,13-dimethyl-2,3,4,5,9,11,12,15,16,17-decahydro-1H-cyclopenta[a]phenanthren-6-one]
mrna remaining at 10 µM [1]: < 70% | activity at 10 µM [3]: > 130% | activity [3, 5]: 130 to 140%

C[C@]12C[C@H](O)[C@H](O)C[C@H]1C(=O)C=C1C2CC[C@]2(C)[C@@H](C(=O)CN3CCOCC3)CC[C@@]12O (stereo partly drawn) [Compound 81, (2S,3R,5R,10R,13R,14S,17S)-2,3,14-trihydroxy-10,13-dimethyl-17-(2-morpholinoacetyl)-2,3,4,5,9,11,12,15,16,17-decahydro-1H-cyclopenta[a]phenanthren-6-one]
mrna remaining at 10 µM [1]: < 70% | activity at 10 µM [3]: 110 to 129% | activity [3, 5]: ~120%

CN(C)CCCN(C)CC(=O)[C@H]1CC[C@@]2(O)C3=CC(=O)[C@@H]4C[C@@H](O)[C@@H](O)C[C@]4(C)C3CC[C@]12C (stereo partly drawn) [Compound 91, (2S,3R,5R,10R,13R,14S,17S)-17-[2-(3-dimethylaminopropyl(methyl)amino)acetyl]-2,3,14-trihydroxy-10,13-dimethyl-2,3,4,5,9,11,12,15,16,17-decahydro-1H-cyclopenta[a]phenanthren-6-one]
mrna remaining at 10 µM [1]: 71 to 85% | activity at 10 µM [3]: 110 to 129% | activity [3, 5]: ~120%

C[C@]12C[C@H](O)[C@H](O)C[C@H]1C(=O)C=C1C2CC[C@]2(C)[C@@H](C(=O)CN3CCC(O)C3)CC[C@@]12O (stereo partly drawn) [Compound 86, (2S,3R,5R,10R,13R,14S,17S)-2,3,14-trihydroxy-17-[2-(3-hydroxypyrrolidin-1-yl)acetyl]-10,13-dimethyl-2,3,4,5,9,11,12,15,16,17-decahydro-1H-cyclopenta[a]phenanthren-6-one]
mrna remaining at 10 µM [1]: < 70% | activity at 10 µM [3]: > 130% | activity [3, 5]: 130 to 140%

CCN(CC)CCO/N=C(/C)[C@H]1CC[C@@]2(O)C3=CC(=O)[C@@H]4C[C@@H](O)[C@@H](O)C[C@]4(C)C3CC[C@]12C (stereo partly drawn) [Compound 32, (2S,3R,5R,10R,13R,14S,17S)-17-(N-(2-diethylaminoethoxy)-C-methylcarbonimidoyl)-2,3,14-trihydroxy-10,13-dimethyl-2,3,4,5,9,11,12,15,16,17-decahydro-1H-cyclopenta[a]phenanthren-6-one]
mrna remaining at 10 µM [1]: < 70% | activity at 10 µM [3]: 110 to 129% | activity [3, 5]: ~120%
